Measurements: ChEMBL document CHEMBL6153084, “The development of α, β-unsaturated lactam-based andrographolide derivatives as anti-gastric cancer agents with the ability of inhibiting the ERK/c-Fos/Jun pathway” (Eur J Med Chem, 2025)
Activity calls are given as the source filed them. No cut-off for these calls is given here.

Legend:
MGC-803 [1] = test: Antiproliferative activity against human MGC-803 cells assessed as inhibition of cell growth incubated for 24 to 72 hrs by MTT assay; assay type: functional, cell-based
A549 = test: Antiproliferative activity against human A549 cells assessed as inhibition of cell growth incubated for 24 to 72 hrs by MTT assay; assay type: functional, cell-based; settings: time 24-72 hrs
ECa-109 cell line = test: Antiproliferative activity against human Eca-109 cells assessed as inhibition of cell growth incubated for 24 to 72 hrs by MTT assay; assay type: functional, cell-based; settings: time 24-72 hrs
MCF7 = test: Antiproliferative activity against human MCF7 cells assessed as inhibition of cell growth incubated for 24 to 72 hrs by MTT assay; assay type: functional, cell-based; settings: time 24-72 hrs
MGC-803 [2] = test: Antiproliferative activity against human MGC-803 cells assessed as inhibition of cell growth incubated for 48 hrs by MTT assay; assay type: functional, cell-based; settings: MGC-803, 48 h
BGC-823 = test: Antiproliferative activity against human BGC-823 cells assessed as inhibition of cell growth incubated for 48 hrs by MTT assay; assay type: functional, cell-based; settings: BGC-823, 48 h
MGC-803 [3] = test: Antiproliferative activity against human MGC-803 cells assessed as inhibition of cell growth incubated for 24 to 48 hrs by MTT assay; assay type: functional, cell-based
MGC-803 [4] = test: Antiproliferative activity against human MGC-803 cells assessed as inhibition of cell growth incubated for 72 hrs by MTT assay; assay type: functional, cell-based; settings: MGC-803, 72 h
MGC-803 [5] = test: Antiproliferative activity against human MGC-803 cells assessed as inhibition of cell growth upto 2.5 uM by MTT assay; assay type: functional, cell-based; settings: time 24-72 hrs
MGC-803 [6] = test: Inhibition of cell migration in human MGC-803 cells incubated for 24 hrs by microscopic analysis; assay type: functional, cell-based; settings: dose <= 1.0 µM
MGC-803 [7] = test: Upregulation of E-cadherin expression in human MGC-803 cells at 1 to 4 uM incubated for 48 hrs by Western blot analysis; assay type: functional, cell-based; settings: dose 1-4 µM
MGC-803 [8] = test: Downregulation of alpha-SMA expression in human MGC-803 cells at 1 to 4 uM incubated for 48 hrs by Western blot analysis; assay type: functional, cell-based; settings: dose 1-4 µM
[9] = Potency index, ratio of 5-fluorouracil IC50 to test compound IC50 for antiproliferative activity against human MGC-803 cells assessed as inhibition of cell growth incubated for 24 to 72 hrs by MTT assay; assay type: functional; settings: time 24-72 hrs
MGC-803 [10] = test: Induction of cell cycle arrest in human MGC-803 cells assessed as accumulation of cells at G2/M phase at 1 uM incubated for 48 hrs by PI staining based flow cytometry analysis; assay type: functional
MGC-803 [11] = test: Induction of cell cycle arrest in human MGC-803 cells assessed as accumulation of cells at G2/M phase incubated for 48 hrs by PI staining based flow cytometry analysis; assay type: functional; settings: dose 0.25-1 µM
MGC-803 [12] = test: Induction of cell cycle arrest in human MGC-803 cells assessed as reduction in CDC25C level incubated for 24 hrs by Western blot analysis; assay type: functional, cell-based; settings: dose 1-4 µM
MGC-803 [13] = test: Induction of apoptosis in human MGC-803 cells assessed as viable cells at 1 uM incubated for 48 hrs by Annexin V-FITC/PI staining based flow cytometry analysis (reference value: 93.9%); assay type: functional; settings: read-out: Activity
MGC-803 [14] = test: Induction of apoptosis in human MGC-803 cells assessed as early apoptotic cells at 1 uM incubated for 48 hrs by Annexin V-FITC/PI staining based flow cytometry analysis (reference value: 0.30%); assay type: functional
MGC-803 [15] = test: Induction of apoptosis in human MGC-803 cells assessed as late apoptotic cells at 1 uM incubated for 48 hrs by Annexin V-FITC/PI staining based flow cytometry analysis (reference value: 0.98%); assay type: functional
MGC-803 [16] = test: Induction of apoptosis in human MGC-803 cells assessed as necrotic cells at 1 uM incubated for 48 hrs by Annexin V-FITC/PI staining based flow cytometry analysis (reference value: 0.83%); assay type: functional
MGC-803 [17] = test: Induction of apoptosis in human MGC-803 cells assessed as viable cells at 2 uM incubated for 48 hrs by Annexin V-FITC/PI staining based flow cytometry analysis (reference value: 93.9%); assay type: functional; settings: read-out: Activity
MGC-803 [18] = test: Induction of apoptosis in human MGC-803 cells assessed as early apoptotic cells at 2 uM incubated for 48 hrs by Annexin V-FITC/PI staining based flow cytometry analysis (reference value: 0.30%); assay type: functional
MGC-803 [19] = test: Induction of apoptosis in human MGC-803 cells assessed as late apoptotic cells at 2 uM incubated for 48 hrs by Annexin V-FITC/PI staining based flow cytometry analysis (reference value: 0.98%); assay type: functional
MGC-803 [20] = test: Induction of apoptosis in human MGC-803 cells assessed as viable cells at 4 uM incubated for 48 hrs by Annexin V-FITC/PI staining based flow cytometry analysis (reference value: 93.9%); assay type: functional; settings: read-out: Activity
MGC-803 [21] = test: Induction of apoptosis in human MGC-803 cells assessed as late apoptotic cells at 4 uM incubated for 48 hrs by Annexin V-FITC/PI staining based flow cytometry analysis (reference value: 0.98%); assay type: functional
MGC-803 [22] = test: Induction of apoptosis in human MGC-803 cells assessed as necrotic cells at 4 uM incubated for 48 hrs by Annexin V-FITC/PI staining based flow cytometry analysis (reference value: 0.83%); assay type: functional
MGC-803 [23] = test: Induction of apoptosis in human MGC-803 cells assessed as upregulation of cleaved caspase-3 expression at 1 to 4 uM incubated for 24 hrs by Western blot analysis; assay type: functional, cell-based; settings: dose 1-4 µM
MGC-803 [24] = test: Induction of apoptosis in human MGC-803 cells assessed as downregulation of […] expression at 1 to 4 uM incubated for 24 hrs by Western blot analysis; assay type: functional, cell-based; settings: dose 1-4 µM
MGC-803 [25] = test: Downregulation of c-FOS level in human MGC-803 cells at 4 uM incubated for 24 hrs by immunoblotting analysis; assay type: functional, cell-based
MGC-803 [26] = test: Downregulation of c-jun level in human MGC-803 cells at 4 uM incubated for 24 hrs by immunoblotting analysis; assay type: functional, cell-based
MGC-803 [27] = test: Inhibition of ERK phosphorylation in human MGC-803 cells at 4 uM measured after 24 hrs by Western blot analysis; assay type: cell-based
MGC-803 [28] = test: Downregulation of ACSS2 mRNA level in human MGC-803 cells at 4 uM incubated for 24 hrs by RT-qPCR analysis; assay type: functional, cell-based
MGC-803 [29] = test: Lipid-lowering activity in human MGC-803 cells assessed as reduction in lipid size by Oil Red O staining based analysis; assay type: functional, cell-based; settings: dose 1-4 µM
MGC-803 [30] = test: Antitumor activity against human MGC-803 cells xenografted in BALB/c mouse assessed as inhibition of tumor growth at 25 to 50 mg/kg, IG administered for 14 days; assay type: functional, organism-based; settings: dose 25-50 mg/kg, time 14.0 day
MGC-803 [31] = test: Antitumor activity against human MGC-803 cells xenografted in BALB/c mouse assessed as inhibition of tumor growth at 25 mg/kg, IG administered for 14 days; assay type: functional; settings: MGC-803, po, 336 h, time 14 day, read-out: TGI
MGC-803 [32] = test: Antitumor activity against human MGC-803 cells xenografted in BALB/c mouse assessed as inhibition of tumor growth at 50 mg/kg, IG administered for 14 days; assay type: functional; settings: MGC-803, po, 336 h, time 14 day, read-out: TGI
[33] = Toxicity in BALB/c mouse implanted with human MGC-803 cells assessed as body weight loss at 25 to 50 mg/kg, IG; assay type: organism-based; settings: in vivo, po, dose 25-50 mg/kg

IC50 (MGC-803 [1]): 2.31 µM
IC50 (MGC-803 [2]): 3.56 µM
IC50 (BGC-823): 38 µM
IC50 (MGC-803 [3]): 3.56 µM
IC50 (MGC-803 [4]): 2.87 µM
SMILES: C=C1CC[C@@H]2[C@](C)(CO)[C@H](O)CC[C@@]2(C)[C@@H]1/C=C/C1=CC(=C/c2ccc(C)cc2)/NC1=O
Activity (MGC-803 [1]; time 24-72 hrs): Dose-dependent-effect
Activity (A549): inactive
Activity (ECa-109 cell line): inactive
Activity (MCF7): inactive
Activity (MGC-803 [5]): Time-dependent-effect
inhibition (MGC-803 [6]): Dose-dependent-effect
Activity (MGC-803 [7]): Active
Activity (MGC-803 [8]): Active
Ratio IC50 [9]: ~8
Activity (MGC-803 [10]): 25.4%
Activity (MGC-803 [11]): Dose-dependent-effect
Activity (MGC-803 [12]): Dose-dependent-effect
viability at 1 µM (MGC-803 [13]): 71.9%
Activity (MGC-803 [14]): 0.44%
Activity (MGC-803 [15]): 15.1%
Activity (MGC-803 [16]): 12.6%
viability at 2 µM (MGC-803 [17]): 40.2%
Activity (MGC-803 [18]): 5.47%
Activity (MGC-803 [19]): 41.5%
viability at 4 µM (MGC-803 [20]): 16%
Activity (MGC-803 [21]): 47.5%
Activity (MGC-803 [22]): 4.54%
Activity (MGC-803 [23]): Active
Activity (MGC-803 [24]): Active
Activity (MGC-803 [25]): Active
Activity (MGC-803 [26]): Active
inhibition (MGC-803 [27]): Active
Activity (MGC-803 [28]): Active
Activity (MGC-803 [29]): Dose-dependent-effect
TGI (MGC-803 [30]): Active
inhibition in vivo at 25 mg/kg (MGC-803 [31]): 20%
inhibition in vivo at 50 mg/kg (MGC-803 [32]): 50%
Activity [33]: Non-toxic
